Patent US7632870B2, “Composition based on substituted 1,3-diphenylprop-2-en-1-one derivatives, preparation and uses thereof” (Genfit, priority 2002, dated 2009)

Tests used:
PPARα = target: T1, PPARα (Homo sapiens, UniProt Q07869); experiment: PPARα/Gal4 transactivation system in RK13 cells (luciferase reporter); format: cell-based, rabbit; conditions: 24 hours
T1 construct: expressed in transfected cells; host or cells: RK13 cells
T1 sequence (Q07869 239-466 limits assumed): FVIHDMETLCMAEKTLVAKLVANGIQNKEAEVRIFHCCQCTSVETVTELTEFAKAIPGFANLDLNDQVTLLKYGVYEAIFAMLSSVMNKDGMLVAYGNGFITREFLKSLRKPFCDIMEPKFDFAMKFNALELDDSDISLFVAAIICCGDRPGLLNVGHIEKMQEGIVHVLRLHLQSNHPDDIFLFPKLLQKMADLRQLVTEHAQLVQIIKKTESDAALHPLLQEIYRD
Description: RK13 cells were incubated with the different compounds at concentrations of 10, 30 and 100 μM or 1, 10 and 100 μM for 24 hours. The results are expressed as the induction factor (luminescent signal relative to untreated cells) after the different treatments.
(§1) PPAR activation was tested in vitro in RK13 fibroblast cell lines by measuring the transcriptional activity of chimeras composed of the DNA binding domain of the yeast gal4 transcription factor and the ligand binding domain of the different PPARs. These latter results were then confirmed in cell lines according to the following protocols:
(§2) RK13 cells were from ECACC (Porton Down, UK) and were grown in DMEM medium supplemented with 10% (V/N) fetal calf serum, 100 U/ml penicillin (Gibco, Paisley, UK) and 2 mM L-glutamine (Gibco, Paisley, UK). The culture medium was changed every two days. Cells were kept at 37° C. in a humidified 95% air/5% CO2 atmosphere.
(§3) The plasmids pG5TkpGL3, pRL-CMV, pGal4-hPPRAα, pGal4-hPPRAγ and pGal4-φ have been described by Raspe, Madsen et al. (1999). The pGal4-mPPRAα and pGal4-hPPRAγ constructs were obtained by cloning into the pGal4-φ vector of PCR-amplified DNA fragments corresponding to the DEF domains of the human PPARα and PPRAγ nuclear receptors.
[…] At the end of the experiment, the cells were lysed (Gibco, Paisley, UK) and luciferase activity was determined with a Dual-Luciferase™ Reporter Assay System kit (Promega, Madison, Wis., USA) according to the supplier's instructions as previously described (Raspe, Madsen et al. 1999).

PPARγ = target: T2, PPARγ (Homo sapiens, UniProt P37231); experiment: PPARγ/Gal4 transactivation system in RK13 cells (luciferase reporter); format: cell-based; conditions: 24 hours
T2 construct: expressed in transfected cells; host or cells: RK13 cells
T2 sequence (P37231 238-503 limits assumed): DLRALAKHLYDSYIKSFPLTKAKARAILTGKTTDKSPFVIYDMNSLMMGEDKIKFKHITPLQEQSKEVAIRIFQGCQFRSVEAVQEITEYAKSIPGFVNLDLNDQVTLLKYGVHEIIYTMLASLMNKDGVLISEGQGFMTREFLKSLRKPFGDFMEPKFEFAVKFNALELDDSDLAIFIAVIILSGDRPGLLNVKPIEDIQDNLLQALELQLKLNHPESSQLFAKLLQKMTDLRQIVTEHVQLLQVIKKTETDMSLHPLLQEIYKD
Description: RK13 cells were incubated with the different compounds at concentrations of 1, 10 and 100 μM for 24 hours. The results are expressed as the induction factor (luminescent signal relative to untreated cells) after the different treatments.
as §1, §2, §3
RK13 cells were seeded in 24-well culture dishes at 5×10^4 cells/well and transfected for 2 hours with the reporter plasmid pG5TkpGL3 (50 ng/well), the expression vectors pGal4-φ, pGal4-mPPRAα, pGal4-hPPRAα, pGal4-hPPRAγ (100 ng/well) and the transfection efficiency control vector PRL-CMV (1 ng/well) according to the previously described protocol (Raspe, Madsen et al. 1999), then incubated for 36 hours with the test compounds. At the end of the experiment, the cells were lysed (Gibco, Paisley, UK) and luciferase activity was determined with a Dual-Luciferase™ Reporter Assay System kit (Promega, Madison, Wis., USA) according to the supplier's instructions as previously described (Raspe, Madsen et al. 1999).

[1] = system: Apo E2/E2 transgenic mice; experiment: Effects on triglyceride and cholesterol metabolism in vivo
Description: Apo E2/E2 transgenic mice were kept on a 12-hour light/dark cycle at a constant temperature of 20±3° C. After a 1 week acclimation, the mice were weighed and divided into groups of 6 animals selected so that body weight would be uniformly distributed. The test compounds were suspended in carboxymethylcellulose and administered by intragastric gavage at the indicated doses, once a day for 7 or 8 days. Animals had access to food and water ad libitum. At the end of the experiment the animals were weighed and sacrificed under anesthesia. Blood was collected on EDTA. Plasma was prepared by centrifugation at 3000 rpm for 20 minutes. Liver samples were taken and stored frozen in liquid nitrogen for subsequent analysis.
Serum lipid concentrations (total cholesterol and free cholesterol, triglycerides and phospholipids) were determined by a colorimetric assay (Boehringer, Mannheim, Germany) according to the supplier's instructions. Serum concentrations of apolipoproteins AI, AII and CIII were determined as previously described (Raspe et al. J. Lipid Res. 40, 2099-2110, 1999, Asset G et al., Lipids, 34, 39-44, 1999).

LDL = experiment: Protection against LDL oxidation by copper (conjugated diene formation); format: biochemical; conditions: FIG. 1-3; compound at 10^-4M; copper alone 348
Description: LDL oxidation is an important alteration and plays a predominant role in the establishment and development of atherosclerosis (Jurgens, Hoff et al. 1987). […] Unless otherwise indicated, the reagents were from Sigma (St Quentin, France).
LDL were prepared according to the method described by Lebeau et al. (Lebeau, Furman et al. 2000).
The solutions of test compounds were prepared at 10^−2 M concentration in bicarbonate buffer (pH 9) and diluted in PBS to obtain final concentrations ranging from 0.1 to 100 μM for a total ethanol concentration of 1% (V/V).
Prior to oxidation, EDTA was removed from the LDL preparation by dialysis. Oxidation then took place at 30° C. by addition of 100 μl of 16.6 μM CuSO4 solution to 160 μL of LDL (125 μg protein/ml) and 20 μl of a test compound solution. The formation of dienes, the species under observation, was followed by measuring optical density at 234 nm in the samples treated with the compounds but in the presence or absence of copper. Optical density at 234 nm was measured every 10 minutes for 8 hours in a thermostated spectrophotometer (Tecan Ultra 380). The analyses were performed in triplicate. The compounds were considered to have antioxidant activity when they induced a longer lag phase and reduced the rate of oxidation and the amount of dienes formed in comparison with the control sample. […] FIGS. 1, 2 and 3 give an example of the results illustrating the antioxidant properties of compounds 2 and 5.

Induction factor (luminescent signal relative to untreated cells) (PPARα; 1 μM)	Induction factor (luminescent signal relative to untreated cells) (PPARα; 10 μM, listed as Cp17)	Induction factor (luminescent signal relative to untreated cells) (PPARγ; 1 μM)	Induction factor (luminescent signal relative to untreated cells) (PPARγ; 10 μM)	Induction factor (luminescent signal relative to untreated cells) (PPARγ; 10 μM, listed as Cp17)	Induction factor (luminescent signal relative to untreated cells) (PPARγ; 100 μM)	Induction factor (luminescent signal relative to untreated cells) (PPARα; 1 μM, listed as Cp33)	Induction factor (luminescent signal relative to untreated cells) (PPARα; 10 μM, listed as Cp33)	Induction factor (luminescent signal relative to untreated cells) (PPARα; 100 μM, listed as Cp33)	Induction factor (luminescent signal relative to untreated cells) (PPARγ; 100 μM, listed as Cp33)	SMILES	triglycerides in large sized lipoparticles (exclusion chromatography) ([1]; gavage 200 mg/kg for 7 days, FIG. 3-3)	cholesterol in large sized lipoparticles (exclusion chromatography) ([1]; gavage 200 mg/kg for 7 days, FIG. 3-4)	maximum amount of conjugated dienes formed (LDL)	triglycerides in large sized lipoparticles (exclusion chromatography) ([1]; 50 mg/kg/day for 8 days, FIG. 3-11)	cholesterol in large sized lipoparticles (exclusion chromatography) ([1]; 50 mg/kg/day for 8 days, FIG. 3-12)
79.76	85.69	15.37	25	24.92	6.13					Cc1cc(/C=C/C(=O)c2ccc(Cl)cc2)cc(C)c1OC(C)(C)C(=O)O [Compound 17, 1-[4-chlorophenyl]-3-[3,5-dimethyl-4-carboxydimethylmethyloxyphenyil]prop-2-en-1-one]	decreased	decreased	327 nmol per mg of LDL		
		15.65	33.90		45.6	22.05	44.52	77.62	45.58	CCCCCCOc1ccc(C(=O)/C=C/c2cc(C)c(OC(C)(C)C(=O)O)c(C)c2)cc1 [Compound 33, 1-[4-hexyloxyphenyl]-3-[3,5-dimethyl-4-carboxydimethylmethyloxyphenyl]prop-2-en-1-one]				decrease	decrease
